Reference: patent publication US20250282753A1, “COMPOUNDS USEFUL FOR REDUCING URIC ACID” (ATOM BIOSCIENCE AMERICA CORPORATION, priority 2022, published 2025)

Tests used:
[1] = cited from earlier work
[2] = tested on: potassium oxonate-induced hyperuricemic rats; experiment: Serum uric acid in potassium oxonate-induced hyperuricemic rats, single gavage (Example 34); format: in vivo, SD rats; settings: for Uric acid 1 h / Uric acid 3 h / Uric acid 5 h / Uric acid 0 h: serum, mean ± SD; for Uric acid 1 h: 1 h after potassium oxonate injection; for Uric acid 3 h: 3 h after potassium oxonate injection; for Uric acid 5 h: 5 h after potassium oxonate injection; for Uric acid 0 h: before potassium oxonate injection
Protocol: 36 male SD rats weighed approximately 200-230 g after one week of adaptation. […] The drugs in each group were prepared into a corresponding concentration suspension, and the administration volume was 0.5 mL/100 g.
After the rats in each group were purchased and adapted to feeding, they were fasted for 12 h, and intraperitoneally injected with potassium oxonate at a dose of 300 mg/kg to establish the model. After 0.5 h of model establishment, each test drug group was gavaged once. Blood was collected from the retro-orbital venous plexus before and 1, 3, and 5 h after potassium oxonate injection. The samples were centrifuged at 3500 rpm for 10 min. 30 μL of serum was collected to determine the uric acid level at each time point.
The measurement data of each test were expressed as (mean)+standard deviation). The comparison between groups used ANOVA-Dunnett T test to examine the significance. P<0.05 was used as the significance index, and P<0.01 was used as the extremely significant index.

[3] = tested on: potassium oxonate-induced hyperuricemic rats; experiment: Serum uric acid in potassium oxonate-induced hyperuricemic rats, 3 days of gavage (Example 35); format: in vivo, SD rats
Protocol: Compound 13 was a light yellow powder, and compounds 38 and 41 are pseudo-white powders, which are triturated with 0.5% CMC-Na just prior to use to prepare a 0.4 mg/mL suspension for gavage.
36 male SD rats weighed approximately 220-240 g after one week of adaptation. […] The drugs in each group were prepared into a corresponding concentration suspension, and the administration volume was 0.5 mL/100 g.
After the rats in each group were purchased and adapted to feeding, they were fasted for 12 h, and, intraperitoneally, injected with⋅ potassium⋅ gxonate at a⋅dose of 300 mg/kg to establish the model. 0.5 h after modeling, each test drug group was gavaged once. The drug was administered continuously for 3 days. On day 3, blood samples was collected from the retro-orbital venous plexus before and 1, 3, and 5 h after potassium oxonate injection. The samples were centrifuged at 3500 rpm for 10 min, and 30 μL of serum was collected to determine the uric acid level at each time point.
The measurement data of each test were expressed as (mean)±standard deviation). The comparison between groups used ANOVA-Dunnett T test to examine the significance. P<0.05 was used as the significance index, and P<0.01 was used as the extremely significant index.

[4] = cited from earlier work; for Sudden cardiac death, number of cases / Sudden cardiac death, share of group: per treatment group
[5] = allopurinol used at the maximum dose; cited from earlier work
[6] = Febuxostat group vs allopurinol group

Pegloticase
patients experiencing severe immune allergic side effects ([1]; human, in vivo, iv): 20-40% | patients reaching the treatment endpoint of below 0.36 mmol/L ([1]; intravenous injection): 47%

Cc1nc(-c2ccc(OCC(C)C)c(C#N)c2)sc1C(=O)O [Febuxostat, reference compound]
serum uric acid level compared with the model group at the same time point ([2]; 1 mg/kg and 2 mg/kg, 1, 3, and 5 h after modeling, P<0.01): significantly reduce | Uric acid 1 h ([2]; 1 mg/kg gavage once): 78.0 ± 17.5 µmol/L | Uric acid 3 h ([2]; 1 mg/kg gavage once): 63.3 ± 13.8 µmol/L | Uric acid 5 h ([2]; 1 mg/kg gavage once): 59.0 ± 9.8 µmol/L | Uric acid 1 h ([2]; 2 mg/kg gavage once): 40.6 ± 10.6 µmol/L | Uric acid 3 h ([2]; 2 mg/kg gavage once): 50.1 ± 10.7 µmol/L | Uric acid 5 h ([2]; 2 mg/kg gavage once): 61.4 ± 7.1 µmol/L | serum uric acid level compared with the model group at the same time point ([3]; 2 mg/kg for 3 days, 1, 3, and 5 h after modeling, P<0.01): significantly reduce | Uric acid 0 h ([3]; serum, 2 mg/kg gavage for 3 days, day 3, 0 h, before potassium oxonate injection, mean ± SD, n=6): 39.2 ± 6.2 µmol/L | Uric acid 1 h ([3]; serum, 2 mg/kg gavage for 3 days, day 3, 1 h after potassium oxonate injection, mean ± SD): 34.4 ± 7.1 µmol/L | Uric acid 3 h ([3]; serum, 2 mg/kg gavage for 3 days, day 3, 3 h after potassium oxonate injection, mean ± SD): 31.2 ± 7.6 µmol/L | Uric acid 5 h ([3]; serum, 2 mg/kg gavage for 3 days, day 3, 5 h after potassium oxonate injection, mean ± SD): 24.7 ± 4.7 µmol/L | increase in all-cause mortality [4, 6]: 22% | increase in cardiovascular mortality [4, 6]: 34% | all-cause mortality, HR ([4]; Febuxostat vs allopurinol group, 95% CI 1.01-1.47): 1.22 | cardiovascular mortality, HR ([4]; Febuxostat vs allopurinol group, 95% CI 1.03-1.73): 1.34 | overall risk of adverse cardiovascular events, HR ([4]; Febuxostat vs allopurinol group, average of 32 months of treatment, 95% CI 0.87-1.23): 1.03 | Sudden cardiac death, number of cases [4]: 83 cases | Sudden cardiac death, share of group [4]: 2.7%

Cc1oc(=O)oc1COC(=O)c1ccnc(-c2ccc3c(c2)c(C#N)nn3C(C)C)c1 [Compound 22, (5-methyl-2-oxo-1,3-dioxol-4-yl)methyl 2-(3-cyano-1-isopropyl-1H-indazol-5-yl) isonicotinate]
serum uric acid level compared with the model group at the same time point ([2]; 1.45 mg/kg group, 1 h after modeling, P<0.05): significantly reduce | serum uric acid level compared with the model group at the same time point ([2]; 2.9 mg/kg group, 1 and 5 h after modeling, P<0.05): significantly reduce | Uric acid 0 h ([2]; 1.45 mg/kg gavage once): 64.0 ± 13.1 µmol/L | Uric acid 1 h ([2]; 1.45 mg/kg gavage once): 88.1 ± 17.8 µmol/L | Uric acid 3 h ([2]; 1.45 mg/kg gavage once): 86.5 ± 11.5 µmol/L | Uric acid 5 h ([2]; 1.45 mg/kg gavage once): 78.1 ± 11.1 µmol/L | Uric acid 0 h ([2]; 2.90 mg/kg gavage once): 66.4 ± 7.0 µmol/L | Uric acid 1 h ([2]; 2.90 mg/kg gavage once): 88.3 ± 11.9 µmol/L | Uric acid 3 h ([2]; 2.90 mg/kg gavage once): 77.1 ± 13.2 µmol/L | Uric acid 5 h ([2]; 2.90 mg/kg gavage once): 70.9 ± 6.3 µmol/L

Oc1ncnc2[nH]ncc12 [allopurinol]
rate of subjects reaching the treatment endpoint [5]: less than 50% | Sudden cardiac death, number of cases [4]: 56 cases | Sudden cardiac death, share of group [4]: 1.8%
